Results from patent US12304909B2, “Compounds and their use in therapy” (IMPERIAL COLLEGE INNOVATIONS LIMITED, priority 2018, dated 2025).

What was measured:
[1] = Human liver microsomes half life; type: in vitro ADME; conditions: pH 7.4, read-out: Human liver microsomes t ½
Procedure: Example Compound 1 was tested for metabolic stability in an assay using human liver microsomes. Comparative Examples 2, 3, 4, 5 and 6 were also tested in the same assay. Compounds having good metabolic stability in the assay are expected to be especially useful as agents for preventing and/or treating cancer, by having a long half-life in human patients
Frozen human liver microsomes obtained from Corning, USA (cat #452117) were thawed and diluted with 100 mM of pH 7.4 phosphate buffer to give a 1 mg/ml solution. An NADPH regeneration system (NRS) was prepared as a solution containing 13 mM NADP, 33 mM glucose-6-phosphate, 33 mM MgCl2 and 4U/mL glucose-6-phosphate dehydrogenase in 100 mM of pH7.4 phosphate buffer. The test compound (4 mM) in DMSO was diluted with acetonitrile to provide a 100 μM sub-stock then further diluted with 100 mM of pH7.4 phosphate buffer to provide a 2 μM working solution. The liver microsome solution and NRS were incubated at 37° C. before use. To each well of the test plate was dispensed 60 μL of buffer, 50 μL of test compound solution and 10 μL of NRS. A reaction was initiated by addition of 40 μL of liver microsome solution. Wells were incubated for an appropriate time (0, 5, 10, 20, 30 and 60 min) then quenched with 300 μL of acetonitrile containing reference standards atenolol, propranolol, diclofenac, verapamil). All plates were centrifuged at 3500 rpm for 20 min at 15° C. to pellet the debris. 110 μL supernatant was diluted 110 μL water and quantitated using LC-MS/MS.
The results were used to calculate the % Remaining of the test compound at time point t=100×˜[(AUC at time point t)/(AUC at T=0)]. A linear regression curve was fitted to a plot of natural logarithm (In) of AUC against time. The T-half (min)=0.693/slope.

Mouse half life in vivo = conditions: plasma; mouse oral half-life; male CD-1 mice, 10 mg/kg po; read-out: Rat or mouse t ½ (mouse) (converted)
Procedure: Example Compound 1, and Comparative Examples 2 and 3 were tested for metabolic stability in male Sprague-Dawley rats. Comparative Example 5 was tested for metabolic stability in male CD-1 mice. Compounds having good metabolic stability in rats or mice are expected to be especially useful as agents for preventing and/or treating cancer, by having a long half-life in human patients.
Same as rat protocol except that CD-1 mice were dosed at 5 mg/kg iv and 10 mg/kg po.

MRC5 cells = experiment: Metabolic activity assay (MTS assay), MRC5; type: cell-based, human; conditions: Homo sapiens, MRC5, 72 h
Procedure: Example NMT inhibitors of the present invention were tested for activity in an in vitro metabolic activity assay using the human cell line MRC5. Comparative Examples 1, 2, 3, 4, 5 and 6 were also tested in the same metabolic activity assay. Compounds having activity in inhibiting metabolic activity in the assay are expected to be useful as agents for preventing and/or treating cancer, by virtue of being inhibitors of human NMT1 and/or NMT2.
MRC5 cells (obtained from Dr David Mann's group, Imperial College; cell type: fibroblasts cells which derive from normal lung tissue) were grown in DMEM media (supplemented with 10% FBS) and were seeded in a 96-well plate, 24 h prior to treatment. Cell suspensions were prepared by adjusting the cell density to the appropriate concentration (as stated in the Table 1 below) and 50 μL of the cell suspension was transferred to wells B-G in columns 2-11 of a 96-well plate.
100 μL of growth media (DMEM media) containing 0.2% DMSO was added to wells B-G in columns 2 and 11 as positive controls, and 100 μl of growth media containing Puromycin (3 μg/mL; final concentration in the plate 2 μg/mL) was added to wells B-G in column 3 as a negative control. Seven concentrations of NMT inhibitor stock solution were prepared for each Example (Example 1 and 2) and each Comparative Example (Comparative Examples 1, 2, 3, 4, 5 and 6) tested (same final percentage of DMSO, dilution factor=3 starting from 15 μM or 150 μM). 100 μL of inhibitor stock solution was added to wells B-G in columns 4-10 of a 96-well plate (final concentration of Example compound or Comparative Example compound in the plate starting from 10 μM or 100 μM; total volume in each well was 150 μL). The plate was incubated at 37° C. with 5% CO2 level.
After 72 h, 20 μL MTS reagent (Promega, prepared according to the supplier protocol) was added to each well of the 96-well plate. The plate was incubated at 37° C. for 2 h and the absorbance per well was measured at 490 nm with an EnVision plate reader. The average absorbance value of the negative control (Puromycin-treated cells) was subtracted from each value and the metabolic activity was calculated as a percentage relative to the positive control (DMSO-treated cells). EC50 values were calculated using GraphPad.

human NMT1 (HsNMT1) = biological target: T1, human NMT1 (HsNMT1) (Homo sapiens, UniProt P30419); experiment: HsNMT1 IC50, fluorescence-based assay detecting CoA with CPM; type: biochemical
T1 sequence (P30419 1-496): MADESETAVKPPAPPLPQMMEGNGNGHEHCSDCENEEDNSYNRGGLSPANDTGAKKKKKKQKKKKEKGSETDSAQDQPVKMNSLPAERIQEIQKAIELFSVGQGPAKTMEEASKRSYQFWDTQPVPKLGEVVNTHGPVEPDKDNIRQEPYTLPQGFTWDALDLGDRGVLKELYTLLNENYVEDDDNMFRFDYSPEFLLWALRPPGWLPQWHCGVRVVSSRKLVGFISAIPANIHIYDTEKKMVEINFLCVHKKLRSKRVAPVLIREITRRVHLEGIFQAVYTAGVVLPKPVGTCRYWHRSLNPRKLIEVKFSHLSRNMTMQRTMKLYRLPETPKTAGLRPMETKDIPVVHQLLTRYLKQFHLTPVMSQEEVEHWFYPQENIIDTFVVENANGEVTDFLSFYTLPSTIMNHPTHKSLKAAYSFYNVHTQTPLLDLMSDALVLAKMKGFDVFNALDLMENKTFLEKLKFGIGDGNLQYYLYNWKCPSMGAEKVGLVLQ
Procedure: The IC50 values for human NMT1 (HsNMT1) of four Example compounds of the invention described above (Examples 1-4) and six comparative examples (Comparative Examples 1, 2, 3, 4, 5 and 6) were measured using a sensitive fluorescence-based assay based on detection of CoA by 7-diethylamino-3-(4-maleimido-phenyl)-4-methylcoumarin, as described in Goncalves, V., et al., Analytical Biochemistry, 2012, 421, 342-344 and Goncalves, V., et al., J. Med. Chem, 2012, 55, 3578.

half-life at 0.625 µM [1]: 7 min | half-life (Mouse half life in vivo): 42 min | IC50 (human NMT1 (HsNMT1)): 0.013 µM
SMILES: Cc1nn(C)c(C)c1CCOc1cc(F)ccc1-c1ccc2c(c1)c(CN(C)C)nn2C [Comparative Example 5, 1-(5-(4-fluoro-2-(2-(1,3,5-trimethyl-1H-pyrazol-4-yl)ethoxy)phenyl)-1-methyl-1H-indazol-3-yl)-N,N-dimethylmethanamine]
EC50 (MRC5 cells): 27 µM
